Here are results for seven compounds from PubChem BioAssay AID1259407 (Chemical Carcinogenesis Research Information System (CCRIS), 2018).

Active and inactive are the calls of the source. The rule behind the calls is not given here.

This series has as its system CCRIS mutagenicity, Ames/micronucleus/aberration tests. Nature of the series: CCRIS mutagenicity studies.
[1] abbreviates: Test System: AMES SALMONELLA TYPHIMURIUM, Strain/Indicator: TA100, Metabolic Activation: NONE, Method: STANDARD PLATE.
Where [2] appears, read: Test System: AMES SALMONELLA TYPHIMURIUM, Strain/Indicator: TA98, Metabolic Activation: NONE, Method: STANDARD PLATE.
Where [3] appears, read: Test System: AMES SALMONELLA TYPHIMURIUM, Strain/Indicator: TA98, Metabolic Activation: RAT, LIVER, S-9, AROCLOR 1254, Method: STANDARD PLATE.
[4] abbreviates: Test System: AMES SALMONELLA TYPHIMURIUM, Strain/Indicator: TA100, Metabolic Activation: NONE, Method: PREINCUBATION
[5] abbreviates: Test System: AMES SALMONELLA TYPHIMURIUM, Strain/Indicator: TA1535, Metabolic Activation: NONE, Method: STANDARD PLATE.
The mark [6] stands for this setting: Test System: AMES SALMONELLA TYPHIMURIUM, Strain/Indicator: TA1538, Metabolic Activation: NONE, Method: STANDARD PLATE.
Where [7] appears, read: Test System: AMES SALMONELLA TYPHIMURIUM, Strain/Indicator: TA1538, Metabolic Activation: RAT, LIVER, S-9, AROCLOR 1254, Method: STANDARD PLATE.

As for `Nc1ccc(-c2ccc(N)cc2Cl)c(Cl)c1`, the mutagenic call (Test System: AMES SALMONELLA TYPHIMURIUM, Strain/Indicator: TA98, Metabolic Activation: HAMSTER, LIVER, S-9, Method: PREINCUBATION (PRIVAL METHOD)) is “active; positive”; the mutagenic call (Test System: AMES SALMONELLA TYPHIMURIUM, Strain/Indicator: TA98, Metabolic Activation: NONE, Method: PREINCUBATION (PRIVAL METHOD)) is “active; positive”; the mutagenic call (Test System: UDS HUMAN CELLS, Strain/Indicator: THY INCORP (NON-S-PHASE), Metabolic Activation: RAT, LIVER, S-9, PHENOBARBITAL, Method: LIQUID SCINTILLATION COUNTING) is “active; positive”.

In the case of `CN(N=O)C(=O)Nc1ccccc1`, the mutagenic call (End Point: IN VITRO CHROMOSOMAL ABERRATIONS, Test System: CHINESE HAMSTER V79-E CELLS, Metabolic Activation: NONE) was “active; positive (structural changes)”.

For `CC(C)COS(C)(=O)=O`, the mutagenic call runs as follows: (End Point: IN VITRO MICRONUCLEUS, Test System: MOUSE LYMPHOMA L5178Y CELLS, Metabolic Activation: NONE) “inactive; negative; significant increase at highly/excessively cytotoxic doses”; (End Point: IN VITRO MICRONUCLEUS, Test System: MOUSE LYMPHOMA L5178Y CELLS, Metabolic Activation: RAT, LIVER, S-9) “inactive; negative”; under setting [1], “active; positive”; (Test System: AMES SALMONELLA TYPHIMURIUM, Strain/Indicator: TA100, Metabolic Activation: RAT, LIVER, S-9, Method: STANDARD PLATE) “active; positive”.

For `O=C(O)Cc1c[nH]c2ccccc12`, the mutagenic call (Test System: AMES SALMONELLA TYPHIMURIUM, Strain/Indicator: TA97A, Metabolic Activation: NONE, Method: STANDARD PLATE) is “inactive; negative”; the mutagenic call (Test System: AMES SALMONELLA TYPHIMURIUM, Strain/Indicator: TA97A, Metabolic Activation: RAT, LIVER, S-9, AROCLOR 1254, Method: STANDARD PLATE) was “inactive; negative”; the mutagenic call under setting [2] is “inactive; negative”; the mutagenic call (Test System: AMES SALMONELLA TYPHIMURIUM, Strain/Indicator: TA98, Metabolic Activation: RAT LIVER S-9, 3-METHYLCHOLANTHRENE AND PHENOBARBITAL, Method: STANDARD PLATE) was “inactive; negative”; the mutagenic call under setting [3] was “inactive; negative”; the mutagenic call under setting [4] is “inactive; negative”. For the same compound, the mutagenic call under setting [1] is “inactive; negative”; the mutagenic call (Test System: AMES SALMONELLA TYPHIMURIUM, Strain/Indicator: TA100, Metabolic Activation: RAT LIVER S-9, 3-METHYLCHOLANTHRENE AND PHENOBARBITAL, Method: STANDARD PLATE) is “inactive; negative”; the mutagenic call (Test System: AMES SALMONELLA TYPHIMURIUM, Strain/Indicator: TA100, Metabolic Activation: RAT, LIVER, S-9, AROCLOR 1254, Method: STANDARD PLATE) is “inactive; negative”; the mutagenic call under setting [5] was “inactive; negative”; the mutagenic call (Test System: AMES SALMONELLA TYPHIMURIUM, Strain/Indicator: TA1535, Metabolic Activation: RAT, LIVER, S-9, AROCLOR 1254, Method: STANDARD PLATE) was “inactive; negative”; the mutagenic call (Test System: AMES SALMONELLA TYPHIMURIUM, Strain/Indicator: TA1537, Metabolic Activation: NONE, Method: STANDARD PLATE) is “inactive; negative”. Moreover, the mutagenic call is, setting by setting: (Test System: AMES SALMONELLA TYPHIMURIUM, Strain/Indicator: TA1537, Metabolic Activation: RAT, LIVER, S-9, AROCLOR 1254, Method: STANDARD PLATE) “inactive; negative”; under setting [6], “inactive; negative”; under setting [7], “inactive; negative”.

As for `CCN(CC)c1ccc2c(C)cc(=O)oc2c1`, the mutagenic call by setting is: (Test System: AMES SALMONELLA TYPHIMURIUM, Strain/Indicator: TA98, Metabolic Activation: HAMSTER, LIVER, S-9, AROCLOR 1254, Method: PREINCUBATION) “inactive; negative”; (Test System: AMES SALMONELLA TYPHIMURIUM, Strain/Indicator: TA98, Metabolic Activation: NONE, Method: PREINCUBATION) “inactive; negative”; (Test System: AMES SALMONELLA TYPHIMURIUM, Strain/Indicator: TA98, Metabolic Activation: RAT, LIVER, S-9, AROCLOR 1254, Method: PREINCUBATION) “inactive; negative”; (Test System: AMES SALMONELLA TYPHIMURIUM, Strain/Indicator: TA100, Metabolic Activation: HAMSTER, LIVER, S-9, AROCLOR 1254, Method: PREINCUBATION) “inactive; negative”; under setting [4], “inactive; negative”; (Test System: AMES SALMONELLA TYPHIMURIUM, Strain/Indicator: TA100, Metabolic Activation: RAT, LIVER, S-9, AROCLOR 1254, Method: PREINCUBATION) “inactive; negative”. Also, the mutagenic call (Test System: AMES SALMONELLA TYPHIMURIUM, Strain/Indicator: TA1535, Metabolic Activation: HAMSTER, LIVER, S-9, AROCLOR 1254, Method: PREINCUBATION) was “inactive; negative”; the mutagenic call (Test System: AMES SALMONELLA TYPHIMURIUM, Strain/Indicator: TA1535, Metabolic Activation: NONE, Method: PREINCUBATION) was “inactive; negative”; the mutagenic call (Test System: AMES SALMONELLA TYPHIMURIUM, Strain/Indicator: TA1535, Metabolic Activation: RAT, LIVER, S-9, AROCLOR 1254, Method: PREINCUBATION) was “inactive; negative”; the mutagenic call (Test System: AMES SALMONELLA TYPHIMURIUM, Strain/Indicator: TA1537, Metabolic Activation: HAMSTER, LIVER, S-9, AROCLOR 1254, Method: PREINCUBATION) is “inactive; negative”; the mutagenic call (Test System: AMES SALMONELLA TYPHIMURIUM, Strain/Indicator: TA1537, Metabolic Activation: NONE, Method: PREINCUBATION) was “inactive; negative”; the mutagenic call (Test System: AMES SALMONELLA TYPHIMURIUM, Strain/Indicator: TA1537, Metabolic Activation: RAT, LIVER, S-9, AROCLOR 1254, Method: PREINCUBATION) was “inactive; negative”.

With `CNC(=O)OCc1nc(SC)n(C)c1COC(=O)NC`, the mutagenic call is “active; positive” (Test System: Mouse lymphoma, Strain/Indicator: L5178Y (tk+/tk-), Metabolic Activation: None, Method: Suspension/plate) and “active; positive” (Test System: Mouse lymphoma, Strain/Indicator: L5178Y (tk+/tk-), Metabolic Activation: Rat, Liver, S-9, Aroclor 1254, Method: Suspension/plate).

On to `O=[N+]([O-])c1ccc(NO)cc1`, for which the mutagenic call (Test System: AMES SALMONELLA TYPHIMURIUM, Strain/Indicator: TA98(NR), Metabolic Activation: NONE, Method: STANDARD PLATE) is “active; positive”; the mutagenic call (Test System: AMES SALMONELLA TYPHIMURIUM, Strain/Indicator: TA98(NR), Metabolic Activation: RAT, LIVER, S-9, AROCLOR 1254, Method: STANDARD PLATE) was “inactive; negative”; the mutagenic call under setting [2] is “active; positive”; the mutagenic call under setting [3] is “active; positive”; the mutagenic call under setting [1] was “active; positive”; the mutagenic call under setting [5] is “active; positive”. Besides, the mutagenic call (Test System: AMES SALMONELLA TYPHIMURIUM, Strain/Indicator: TA1538(NR), Metabolic Activation: NONE, Method: STANDARD PLATE) was “active; positive”; the mutagenic call (Test System: AMES SALMONELLA TYPHIMURIUM, Strain/Indicator: TA1538(NR), Metabolic Activation: RAT, LIVER, S-9, AROCLOR 1254, Method: STANDARD PLATE) was “active; positive”; the mutagenic call under setting [6] was “active; positive”; the mutagenic call under setting [7] is “active; positive”; the mutagenic call (Test System: E. COLI, Strain/Indicator: WP2 UVRA(P), Metabolic Activation: NONE, Method: STANDARD PLATE) was “active; positive”; the mutagenic call (Test System: E. COLI, Strain/Indicator: WP2 UVRA, Metabolic Activation: NONE, Method: FLUCTUATION TEST) was “active; positive”. Moreover, under “Test System: E. COLI, Strain/Indicator: WP2 UVRA, Metabolic Activation: NONE, Method: STANDARD PLATE”, the mutagenic call was “inactive; negative”.
